From PubChem BioAssay AID258 (DTP/NCI, 2004)
Several values for one entry are separate records, joined by “and”; a condition that tells them apart may be missing. Identical values can stand only once. Inconclusive results and toxic doses are left out.

Test system: CD2F1 mice, L1210 leukemia sc, survival T/C
Test: NCI In Vivo Anticancer Drug Screen. Data for tumor model L1210 Leukemia (subcutaneous) in CD2F1 (CDF1) mice
Details: endpoint: median survival time, higher = longer survival
Summary of the method: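 Read-out: survival or tumor size. Value = treated (T) / vehicle control (C). Transplantable tumor in mice.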

**Q.** For `O=c1cnn(C2OC(CO)C(O)C2O)c(=O)[nH]1` (stereo unspecified), which T/C (dose: 37.5 mg/kg/injection, schedule: Q01DX009 (ip), vehicle: saline) is on record?
**A.** 113 % of control

**Q.** And the T/C (dose: 75.0 mg/kg/injection, schedule: Q01DX009 (ip), vehicle: saline)?
**A.** 120 % of control

**Q.** What about the T/C (dose: 250.0 mg/kg/injection, schedule: Q01DX Z (sc), vehicle: saline) of the same compound?
**A.** 111 % of control

**Q.** What about the T/C (dose: 500.0 mg/kg/injection, schedule: Q01DX Z (sc), vehicle: saline) of the same compound?
**A.** 116 % of control

**Q.** What about the T/C (dose: 1000.0 mg/kg/injection, schedule: Q01DX Z (sc), vehicle: saline) of the same compound?
**A.** 111 % of control

**Q.** What about the T/C (dose: 1200.0 mg/kg/injection, schedule: Q01DX009 (ip), vehicle: saline) of the same compound?
**A.** 103 % of control

**Q.** What about the T/C (dose: 1200.0 mg/kg/injection, schedule: Q01DX009 (sc), vehicle: saline) of the same compound?
**A.** 107 % of control

**Q.** What does the source list for `ONc1nc(NO)c2[nH]cnc2n1`?
**A.** T/C (dose: 8.0 mg/kg/injection, schedule: Q01DX Z (sc), vehicle: steriod suspending solution): 100 % of control; T/C (dose: 32.0 mg/kg/injection, schedule: Q01DX Z (sc), vehicle: steriod suspending solution): 175 % of control; T/C (dose: 64.0 mg/kg/injection, schedule: Q01DX Z (sc), vehicle: steriod suspending solution): 200 % of control

**Q.** For `O=C1NC(=O)C2C3C=CC(C12)C1C2C(=O)NC(=O)C2C31` (stereo unspecified), which T/C (dose: 3.0 mg/kg/injection, schedule: Q01DX005 (iv), vehicle: other) is on record?
**A.** 108 % of control

**Q.** What about the T/C (dose: 6.0 mg/kg/injection, schedule: Q01DX005 (ip), vehicle: other) of the same compound?
**A.** 111 % of control

**Q.** What about the T/C (dose: 6.0 mg/kg/injection, schedule: Q01DX005 (iv), vehicle: other) of the same compound?
**A.** 104 % of control

**Q.** What about the T/C (dose: 6.0 mg/kg/injection, schedule: Q01DX005 (sc), vehicle: other) of the same compound?
**A.** 105 % of control

**Q.** And the T/C (dose: 12.0 mg/kg/injection, schedule: Q01DX005 (ip), vehicle: other)?
**A.** 104 % of control

**Q.** What about the T/C (dose: 12.0 mg/kg/injection, schedule: Q01DX005 (iv), vehicle: other) of the same compound?
**A.** 104 % of control and 107 % of control

**Q.** And the T/C (dose: 12.0 mg/kg/injection, schedule: Q01DX005 (sc), vehicle: other)?
**A.** 108 % of control

**Q.** And the T/C (dose: 12.0 mg/kg/injection, schedule: Q01DX009 (ip), vehicle: other)?
**A.** 115 % of control

**Q.** What about the T/C (dose: 14.0 mg/kg/injection, schedule: Q01DX009 (ip), vehicle: water) of the same compound?
**A.** 110 % of control

**Q.** What about the T/C (dose: 17.2 mg/kg/injection, schedule: Q01DX005 (iv), vehicle: other) of the same compound?
**A.** 107 % of control

**Q.** And the T/C (dose: 17.2 mg/kg/injection, schedule: Q01DX009 (ip), vehicle: other)?
**A.** 122 % of control

**Q.** And the T/C (dose: 18.0 mg/kg/injection, schedule: Q01DX009 (ip), vehicle: clinical formulation)?
**A.** 121 % of control

**Q.** And the T/C (dose: 24.5 mg/kg/injection, schedule: Q01DX005 (iv), vehicle: other)?
**A.** 110 % of control

**Q.** And the T/C (dose: 25.0 mg/kg/injection, schedule: Q01DX005 (ip), vehicle: other)?
**A.** 113 % of control

**Q.** What about the T/C (dose: 25.0 mg/kg/injection, schedule: Q01DX005 (ip), vehicle: saline with Tween-80) of the same compound?
**A.** 105 % of control

**Q.** And the T/C (dose: 25.0 mg/kg/injection, schedule: Q01DX005 (sc), vehicle: other)?
**A.** 114 % of control

**Q.** And the T/C (dose: 30.0 mg/kg/injection, schedule: Q01DX009 (ip), vehicle: clinical formulation)?
**A.** 150 % of control

**Q.** What about the T/C (dose: 38.9 mg/kg/injection, schedule: Q01DX009 (ip), vehicle: water) of the same compound?
**A.** 203 % of control

**Q.** What about the T/C (dose: 50.0 mg/kg/injection, schedule: Q01DX005 (ip), vehicle: other) of the same compound?
**A.** 164 % of control

**Q.** And the T/C (dose: 50.0 mg/kg/injection, schedule: Q01DX005 (iv), vehicle: other)?
**A.** 160 % of control and 175 % of control

**Q.** And the T/C (dose: 50.0 mg/kg/injection, schedule: Q01DX005 (oral), vehicle: other)?
**A.** 105 % of control

**Q.** What about the T/C (dose: 50.0 mg/kg/injection, schedule: Q01DX005 (sc), vehicle: other) of the same compound?
**A.** 152 % of control

**Q.** What about the T/C (dose: 50.0 mg/kg/injection, schedule: Q01DX009 (ip), vehicle: clinical formulation) of the same compound?
**A.** 192 % of control

**Q.** What about the T/C (dose: 50.0 mg/kg/injection, schedule: Q01DX009 (ip), vehicle: other) of the same compound?
**A.** 166 % of control

**Q.** And the T/C (dose: 64.8 mg/kg/injection, schedule: Q01DX009 (ip), vehicle: water)?
**A.** 291 % of control

**Q.** And the T/C (dose: 71.4 mg/kg/injection, schedule: Q01DX005 (iv), vehicle: other)?
**A.** 247 % of control

**Q.** What about the T/C (dose: 71.4 mg/kg/injection, schedule: Q01DX009 (ip), vehicle: other) of the same compound?
**A.** 250 % of control

**Q.** What about the T/C (dose: 83.3 mg/kg/injection, schedule: Q01DX009 (ip), vehicle: clinical formulation) of the same compound?
**A.** 106 % of control

**Q.** And the T/C (dose: 100.0 mg/kg/injection, schedule: Q01DX005 (ip), vehicle: saline with Tween-80)?
**A.** 204 % of control

**Q.** What about the T/C (dose: 100.0 mg/kg/injection, schedule: Q01DX005 (oral), vehicle: other) of the same compound?
**A.** 108 % of control

**Q.** What about the T/C (dose: 100.0 mg/kg/injection, schedule: Q01DX005 (sc), vehicle: other) of the same compound?
**A.** 89 % of control

**Q.** What about the T/C (dose: 200.0 mg/kg/injection, schedule: Q01DX005 (oral), vehicle: other) of the same compound?
**A.** 113 % of control

**Q.** And the T/C (dose: 252.0 mg/kg/injection, schedule: Q01DX009 (oral), vehicle: other)?
**A.** 171 % of control

**Q.** What about the T/C (dose: 378.0 mg/kg/injection, schedule: Q01DX009 (oral), vehicle: other) of the same compound?
**A.** 162 % of control

**Q.** What about the T/C (dose: 400.0 mg/kg/injection, schedule: Q01DX005 (oral), vehicle: other) of the same compound?
**A.** 108 % of control

**Q.** And the T/C (dose: 800.0 mg/kg/injection, schedule: Q01DX005 (oral), vehicle: other)?
**A.** 229 % of control

**Q.** What about the T/C (dose: 850.0 mg/kg/injection, schedule: Q01DX009 (oral), vehicle: other) of the same compound?
**A.** 182 % of control

**Q.** What about the T/C (dose: 1274.0 mg/kg/injection, schedule: Q01DX009 (oral), vehicle: other) of the same compound?
**A.** 225 % of control

**Q.** `Nc1nc2c(c(=O)[nH]1)NC(CCNc1ccc(C(=O)NC(CCC(=O)O)C(=O)O)cc1)CN2` (stereo unspecified) was tested. Which T/C (dose: 25.0 mg/kg/injection, schedule: Q03HX Z (ip), vehicle: other) did it give?
**A.** 120 % of control

**Q.** And the T/C (dose: 50.0 mg/kg/injection, schedule: Q03HX Z (ip), vehicle: other)?
**A.** 120 % of control

**Q.** What about the T/C (dose: 100.0 mg/kg/injection, schedule: Q01DX Z (ip), vehicle: other) of the same compound?
**A.** 120 % of control

**Q.** What about the T/C (dose: 100.0 mg/kg/injection, schedule: Q04DX Z (ip), vehicle: other) of the same compound?
**A.** 100 % of control

**Q.** And the T/C (dose: 200.0 mg/kg/injection, schedule: Q04DX Z (ip), vehicle: other)?
**A.** 100 % of control

**Q.** And the T/C (dose: 800.0 mg/kg/injection, schedule: Q01DX Z (ip), vehicle: other)?
**A.** 100 % of control

**Q.** `Nc1ncnc2c1ccn2C1OC(CO)C(O)C1O` (stereo unspecified) was tested. Which T/C (dose: 0.25 mg/kg/injection, schedule: Q01DX009 (ip), vehicle: Klucel (hydroxypropylcellulose) (HPC)) did it give?
**A.** 102 % of control

**Q.** What about the T/C (dose: 0.5 mg/kg/injection, schedule: Q01DX009 (ip), vehicle: Klucel (hydroxypropylcellulose) (HPC)) of the same compound?
**A.** 97 % of control

**Q.** What about the T/C (dose: 1.0 mg/kg/injection, schedule: Q01DX009 (ip), vehicle: Klucel (hydroxypropylcellulose) (HPC)) of the same compound?
**A.** 92 % of control

**Q.** And the T/C (dose: 2.0 mg/kg/injection, schedule: Q01DX009 (ip), vehicle: Klucel (hydroxypropylcellulose) (HPC))?
**A.** 95 % of control

**Q.** And the T/C (dose: 4.0 mg/kg/injection, schedule: Q01DX009 (ip), vehicle: Klucel (hydroxypropylcellulose) (HPC))?
**A.** 97 % of control

**Q.** And the T/C (dose: 8.0 mg/kg/injection, schedule: Q01DX009 (ip), vehicle: Klucel (hydroxypropylcellulose) (HPC))?
**A.** 102 % of control

**Q.** What about the T/C (dose: 16.0 mg/kg/injection, schedule: Q01DX009 (ip), vehicle: Klucel (hydroxypropylcellulose) (HPC)) of the same compound?
**A.** 101 % of control
